# Measurements published in patent US4515708A, “Corrosion inhibitors” (Exxon Research & Engineering Co., priority 1982, dated 1985).
# What was measured:
# [1] = Corrosion Test 2 (dynamic wheel test; 3 wt% brine; CO2 + H2S); conditions: 24 h, 70° C.
# Method in brief: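 Mild steel coupons in 200 ml 3 wt% brine saturated with CO2 plus 100 ppm H2S; inhibitor dosed at 2, 10, 50 and 250 ppm of a 30% aqueous solution. Dynamic wheel test at about 40 rpm, 24 hours, 70° C. % protection is the % reduction in weight loss vs an uninhibited control, three coupons per concentration.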
# [2] = Emulsion Test (3 wt% brine / heptane); type: physicochemical; design: Emulsion thickness after 30 mins: unit not given here; conditions: for Time to break emulsion: 1 ml of 35 wt% IPA solution, 50 ml 3 wt% brine, 50 ml heptane; for Appearance after 30 mins, hydrocarbon: hydrocarbon layer; for Appearance after 30 mins, hydrocarbon / Appearance after 30 mins, water / Emulsion thickness after 30 mins: 50 ml 3 wt% brine/50 ml heptane; for Appearance after 30 mins, water: water layer
# Method: 1 ml of the solutions used for Test A was shaken with 50 ml of 3 wt% brine and 50 ml of heptane for 1 minute in a 150 ml bottle. The emulsion was observed, and the time noted for the emulsion to break and form a clean interface with clear liquid layers. If at 30 minutes this had not occurred, the appearance was recorded together with the thickness of any persisting emulsion.
# [3] = Corrosion inhibition tests, constant concentration conditions (overall)
# Method: (§1) For each compound three mild steel coupons (approximately 100 mm×12 mm×1.5 mm) were tested at each concentration. Each was contacted in a 250 ml bottle with 200 ml of a test fluid either saturated with a carbon dioxide at 20° C. or containing 100 ppm hydrogen sulphide or having both CO2 and H2 S present in those amounts. The test fluid was treated with a 30% aqueous solution of the compound under test at 2, 10, 50 and 250 ppm except where indicated to the contrary. The coupon was subjected to a dynamic wheel test in which the bottle was mounted radially on the periphery of 650 mm diameter wheel which was rotated at about 40 rpm for 24 hours at 70° C. The weight loss was obtained, and also measured in a control experiment where no inhibitor was present. From this the % protection was calculated as % reduction in weight loss.
# [4] = Solubility Test (35 wt% solution in isopropylalcohol shaken with water, brine or heptane); type: physicochemical; conditions: for SOLUBILITY IN: Heptane: 0.3 ml of 35 wt% IPA solution in 10 ml heptane, 30 minutes and 24 hours; for SOLUBILITY IN: Water: 0.3 ml of 35 wt% IPA solution in 10 ml water, observed after 30 minutes and 24 hours
# Method: The active material under test was made up into a 35 wt% solution in isopropylalcohol (IPA). 0.3 ml of this solution was shaken with 10 ml of each of the liquids in which solubility is to be tested: water, 5 wt% NaCl solution (brine) and heptane. The mixture was observed after 30 minutes and 24 hours.
# [5] = Corrosion Test 1 (dynamic wheel test; 3 wt% brine/Mentor 28; CO2 + H2S); conditions: 24 h, 70° C.
# Method in brief: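 Mild steel coupons exposed to 3 wt% brine/Mentor 28 kerosene (1:1) saturated with CO2 plus 100 ppm H2S, inhibitor dosed at 2, 10, 50 and 250 ppm (as 30% aqueous solution). Bottles rotated on a wheel at about 40 rpm for 24 h at 70° C; % protection = reduction in weight loss versus uninhibited control.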
# [6] = Corrosion Test 4 (dynamic wheel test; 3 wt% brine + Mentor 28; H2S); conditions: 24 h, 70° C.
# Method in brief: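 Three mild steel coupons per concentration were exposed to 100 ml 3 wt% brine plus 100 ml Mentor 28 with 100 ppm H2S after a nitrogen purge. Compound was dosed as a 30% aqueous solution at 2, 10, 50 and 250 ppm. Bottles were rotated on a wheel at about 40 rpm for 24 h at 70 °C; % protection = % reduction in weight loss versus uninhibited control.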
# [7] = Film persistency corrosion test; conditions: CO2 + H2S, 24 h, 70° C.
# Method: […] A test fluid made up of equal proportions of 3 wt% brine and Mentor 28 was used, saturated with CO2 and containing 100 ppm H2 S as corrosives. Coupons were used as described for the previous corrosion test. A coupon was first immersed in test fluid containing corrosives and the inhibitor under test for 1 hour, then rinsed for 1 hour in a similar test fluid containing no inhibitor and finally transferred to a further test fluid again containing no inhibitor in which the dynamic wheel test was carried out at 70° C. for 24 hours.
# [8] = Corrosion Test 3 (dynamic wheel test; 3 wt% brine + Mentor 28; CO2 only); conditions: 24 h, 70° C.
# Method: as §1
# Test fluid: 100 ml 3 wt% brine+100 ml Mentor 28
# Corrosives: Saturated CO2 only
Structure (SMILES),% Protection ([1]; 2 ppm) [%],% Protection ([1]; 10 ppm) [%],% Protection ([1]; 50 ppm) [%],% Protection ([1]; 250 ppm) [%],Time to break emulsion [2] [min],"Appearance after 30 mins, hydrocarbon [2]","Appearance after 30 mins, water [2]",performance of 2:1 derivatives compared with 1:1 derivatives [3],SOLUBILITY IN: Heptane [4],SOLUBILITY IN: Water [4],"% Protection ([5]; 2 ppm, 30% solution) [%]","% Protection ([5]; 10 ppm, 30% solution) [%]","% Protection ([5]; 50 ppm, 30% solution) [%]","% Protection ([5]; 250 ppm, 30% solution) [%]",% Protection ([6]; 2 ppm) [%],% Protection ([6]; 10 ppm) [%],% Protection ([6]; 50 ppm) [%],% Protection ([6]; 250 ppm) [%],% Protection ([7]; 500 ppm) [%],% Protection ([7]; 1000 ppm) [%],further results
c1ccc(CN(CCc2ccccn2)CCc2ccccn2)cc1 [Example 20],51,63,75,91,1,clear,clear,tended to perform less well than 1:1 derivatives,S,S,24,25,63,81,–,–,–,–,–,–,–
CCCCCCCCCCCCN(CCc1ccncc1)CCc1ccncc1 [Example 39],41,65,78,87,> 30,hazy,hazy,tended to perform less well than 1:1 derivatives,–,–,26,70,89,89,3,26,64,85,20,24,Emulsion thickness after 30 mins [2]: 0.1; % Protection ([7]; 5000 ppm): 33%; % Protection ([8]; 2 ppm): 9%; % Protection ([8]; 10 ppm): 5%; % Protection ([8]; 250 ppm): 15%
c1ccc(CNCCc2ccccn2)cc1 [Example 8],37,69,75,85,> 30,clear,hazy,–,S,S,21,72,81,81,8,12,40,55,19,22,"% Protection ([7]; 5000 ppm): 24%; % Protection ([5]; 2 ppm, * active material added as undiluted compound): 46%; % Protection ([5]; 10 ppm, * active material added as undiluted compound): 53%; % Protection ([5]; 50 ppm, * active material added as undiluted compound): 88%; % Protection ([5]; 250 ppm, * active material added as undiluted compound): 97%; % Protection ([8]; 2 ppm): 13%; % Protection ([8]; 10 ppm): 32%; % Protection ([8]; 50 ppm): 34%; % Protection ([8]; 250 ppm): 37%"
CCCCCCN(CCc1ccncc1)CCc1ccncc1 [Example 38],–,–,–,–,1,clear,clear,tended to perform less well than 1:1 derivatives,–,–,2,64,79,80,–,–,–,–,–,–,–
CCCCCCCCCCCCN(CCc1ccccn1)CCc1ccccn1 [Example 19],–,–,–,–,> 30,hazy,hazy,tended to perform less well than 1:1 derivatives,S,S,16,71,77,86,2,57,–,57,–,–,–
CCCCCCCCCCCCNCCc1ccncc1 [Example 25],5,44,79,94,> 30,hazy,hazy,–,S,S,28,53,88,96,11,17,57,78,17,15,Emulsion thickness after 30 mins [2]: 0.2; % Protection ([7]; 5000 ppm): 20%; % Protection ([8]; 2 ppm): 10%; % Protection ([8]; 10 ppm): 6%; % Protection ([8]; 50 ppm): 21%; % Protection ([8]; 250 ppm): 27%
